Measured values as given in US10244779B2, “Method of improving stability of sweet enhancer and composition containing stabilized sweet enhancer” (SENOMYX, INC., priority 2010, dated 2019).

Experiment: Photostability of Compound A in various mediums (water, brewed coffee, tea, TBHQ in water; FIG. 1)
Type: physicochemical
Conditions: TBHQ 200 ppm in water
Description: The equivalent sunlight exposure time for 24 hours in the Q-Sun at a constant temperature of 25° C. and irradiance of 450 mW/m^2 @340 nm is estimated to be equivalent to approximately 15.9 days of direct sunlight in the Southwestern United States.
FIG. 1 illustrates the effect of coffee and tea on rate of photo-degradation of Compound A relative to water alone.

Row | effect on the rate of photo-degradation of Compound A | Compound
1 | marginal effect | CC(C)(C)c1cc(O)ccc1O [tert-butyl hydroquinone]

Experiment: not given
Conditions: not given

Row | Compound | melting point
2 | CCC(CC)NC(=O)C(C)(C)COc1cccc2nc(C)c(C(=O)O)c(N)c12 [Example 148, 4-amino-5-(2,2-dimethyl-3-oxo-3-(pentan-3-ylamino)propoxy)-2-methyl-quinoline-3-carboxylic Acid] | 172 to 174 °C
3 | Cc1nc2cccc(OCC(C)(C)NC(=O)CN3CCOCC3)c2c(N)c1C(=O)O [Example 149, 4-amino-2-methyl-5-(2-methyl-2-(2-morpholinoacetamido)propoxy)quinoline-3-carboxylic Acid] | 173 to 175 °C
4 | Cc1nc2cccc(OCC(C)(C)C(=O)NCC(C)C)c2c(N)c1C(=O)O [Example 150, 4-amino-5-(3-(isobutylamino)-2,2-dimethyl-3-oxopropoxy)-2-methylquinoline-3-carboxylic Acid] | 176 to 179 °C
5 | Cc1nc2cccc(OCC(C)(C)C(=O)NCC3CCC3)c2c(N)c1C(=O)O [Example 151, 4-amino-5-(3-((cyclobutylmethyl)amino)-2,2-dimethyl-3-oxopropoxy)-2-methylquinoline-3-carboxylic Acid] | 170 to 172 °C
6 | CCC(=O)N1CCC(COc2cccc3nc(C)c(C(=O)O)c(N)c23)CC1 [Example 153, 4-amino-2-methyl-5-((1-propionylpiperidin-4-yl)methoxy)quinoline-3-carboxylic Acid] | 168 to 170 °C
7 | CNC(=O)[C@H]1CC[C@H](Oc2cccc3nc(C)c(C(=O)O)c(N)c23)CC1 [Example 154, 4-amino-2-methyl-5-(((1,4)-trans-4-(methylcarbamoyl)cyclohexyl)oxy)quinoline-3-carboxylic Acid] | 195 to 198 °C

Now from value to compound:

Row | melting point | Compound
8 | 229 to 230 °C | CCCOc1cccc2c1C(N)=NS(=O)(=O)N2 [Example 158, 4-Amino-5-(propyloxy)-1H-benzo[c][1,2,6]thiadiazine-2,2-dioxide]
9 | > 260 °C | Nc1nc(=O)[nH]c2sc3c(c12)CCOC3 [Example 159, 4-Amino-5,6-(5′,7′-dihydro-4′H-[2′,3′-c]pyrano)thieno[2,3-d]-pyrimidine-2(1H)-one]
10 | 225 to 226 °C | CCCNC(=O)C(C)(C)COc1cccc2c1C(N)=NS(=O)(=O)N2 [Example 197, 3-(4-Amino-2,2-dioxide-1H-benzo[c][1,2,6]thiadiazin-5-yloxy)-2′,2′-dimethyl-N-propylpropanamide]
11 | 235 to 236 °C | CC(C)(COc1cccc2c1C(N)=NS(=O)(=O)N2)NC(=O)c1ccccc1 [Example 198, N-(1-(4-amino-2,2-dioxide-1H-benzo[c][1,2,6]thiadiazin-5-yloxy)-2′-methylpropan-2′-yl)benzamide]
